Laboratory results as given in US9446087B2, “Anti-resorptive and bone building dietary supplements and methods of use” (priority 2006, dated 2016).
Values joined by “and” are separate entries in the source; they are usually repeats but may differ in a detail not shown here. Equal entries are not always repeated. Marks after values point to notes of the source that are not given here. Blank lines part the entries; values can stand above or below the molecule they belong to.

Legend:
RANK-L [1] = experiment: RANK-L gene expression (IL-1b stimulated MG63 cells, qPCR); type: cell-based, human; settings: 3 μg/ml, stimulus alone
Method: Punicalagin test samples are extracted from pomegranates, including from pomegranate peels, skins, fleshy fruit, and seeds using 100% DMSO at 100 mg/ml. Particulate matter in the extraction is not removed. The punicalagin test samples are diluted in MEM without phenol red (estrogenic) and 0.1% FBS to lower background signaling to ten times the final concentrations. Final DMSO concentrations are kept below 0.2% and are kept constant during treatments. DMSO solvent control is used in the untreated group.
MG63 cells (ATCC #CRL-1472), a human-derived osteosarcoma cell line, are plated at 200,000 cells per well in a 12 well plate with phenol red free MEM at 10% FBS. The next day the media is changed to phenol red free MEM at 0.1% FBS. […]
[…] The treated cells the stimulus, IL-1b, are then allowed to incubate for 16 hours at 37° C.
After 16 hours the cells are lysed and the RNA is extracted from the cells with the RNasy purification kit (Qiagen). RNA is reverse transcribed to cDNA and quantified by qPCR using 2-step qRT-PCR reagents (Invitrogen), and 4 μL of purified RNA. Annealing temperature is 57° C. in the Stratagene Mx4000 with 1 μL of RANK-L gene specific primers in a 50 μL reaction (10 μM initial concentration; HLUX3013920, Invitrogen Inc.).
RANK-L and GAPDH gene expression Ct data are obtained. RNA is quantified with adjustments for GAPDH expression. […]

[2] = test system: type IV collagenase protein (matrix metalloproteinase-9/MMP9); experiment: MMP9 protein expression in IL-1B stimulated keratinocyte/fibroblast co-culture; type: cell-based; settings: 10 ng/ml, stimulus alone; untreated 1.0
Method: Keratinocytes and fibroblasts were co-cultured in DMEM containing 0.5% BSA. Co-cultures were exposed to various concentrations of punicalagins (ranging from 0.1%-10%) were extracted from pomegranates. Specifically, the ability of the pomegranate extracts to inhibit type IV collagenase protein (matrix metalloproteinase-9/MMP9) expression at concentrations of 1.0 μg/ml, 10 μg/ml, and 100 μg/ml were tested. Following exposure to the pomegranate extracts, the co-culture cells were stimulated with 10 ng/ml of IL-1B for 18 hours. Following stimulation with IL-1B for 18 hours, and MMP9 concentration was determined in the media as shown below in Table 14.

BMP-2 = BMP-2 Gene Expression Assay (MG-63 cells, real time PCR); type: cell-based, human; settings: 10 μg/ml
Method: It is also possible to test for BMP-2 gene expression and protein expression using assays similar to those described above for testing BMP-2 promoter activity. In particular, for gene expression, the human osteosarcoma cell line, MG-63 (ATCC# CRL-1427), is maintained in phenol-red containing MEM (as recommended by ATCC) at 37° C. and 5% CO2. Twenty-four hours prior to experimentation, 3×10^5 cells are seeded in 12-well plates in phenol-red free MEM. […] After an overnight incubation, RNA is extracted using conventional trizol/guanidine isothiocyanate based lysis. The isolated RNA was digested with RNase-free DNase I to remove any DNA contamination and then reverse transcribed to cDNA using random hexamer as well as oligo(dT) primers according to the manufacturer's instructions (Stratagene). Quantitative real time PCR is performed using FAM-labeled specific primers for BMP-2 and HEX-labeled specific primers for 18S rRNA (Invitrogen). All reactions are carried out in triplicate and the relative amount of mRNAs in treated versus untreated samples is calculated using the comparative CT method established by Applied Biosystems (2001). Gene expression changes of 2-fold or greater are considered significant.

BMP-2 protein = experiment: BMP-2 Protein Expression Assay (Hu09 cells, ELISA); type: cell-based
Method: The cells are treated with different proteasome inhibitors for 24 hours. After incubation, the conditioned media is transferred into microcentrifuge tubes and centrifuged at 14,000 rpm for 2-3 minutes to remove cellular debris. The concentration of BMP-2 protein in the supernatant is then determined using the standard BMP-2 Elisa Kit (R&D ELISA KIT DBP200). Recombinant hBMP-2 (R&D) is used as a standard.

RANK-L [3] = experiment: Inhibition of RANK-L production/release (IL-1b stimulated MG-63 cells, ELISA); type: cell-based, human
Method: Weigh between 150 to 250 mg of each ingredient into a 15 ml conical bottomed tube. […] For solvent control, mix 1.5 ml DMSO, 0.9 ml ethanol, and 0.6 ml water. Vortex thoroughly. Sonicate for 10 minute in water bath, room temperature. Vortex thoroughly again. Dilute ingredient stocks in fresh phenol red-free media. Human osteosarcoma cell line, MG-63 (ATCC #CRL-1427), is maintained in phenol-red containing MEM (as recommended by ATCC) at 37° C. and 5% CO2. Twenty-four hours prior to experimentation, 3×10^5 cells are seeded in 12-well plates in phenol-red free MEM. […] Stock solution of TGF-beta is 30 μg/ml (from R&D Systems, cat #100-B-001). After pretreatment incubation period, […] IL-1b (Calbiochem (catalog #407615) and stock solution at 10 μg/ml, cat #407615) were added to the cell cultures for 18 hours at 37° C. Supernatant media from the treated and stimulated cells were removed and total RANK-L proteins were measured using RANK-L ELISA (in triplicate) as described by manufacturer (from APOTECH, catalog #APO-54N-016-k101). The resulting protein quantity was compared to that of media (null) treated stimulated cells to determine percent decrease in total RANK-L protein.

Neonatal murine calvaria = experiment: Calvarial Assay to Measure Bone Growth; type: cell-based, Swiss white mice
Method: Neonatal murine calvaria from 4 day old Swiss white mice are excised, placed into BGJ media (Sigma), and cut in half along the midline suture. One milliliter of BGJ media supplemented with 0.1% bovine serum albumin (BSA) is added to each well of a 12 well tissue culture plate (Costar) to which the relevant factors or vehicles are added. Each half calvaria is placed on a stainless steel grid in the above media at the media/air interface. Usually 4 bones per experimental group are used. […] Factors to be tested are added on Day 0 (the day of dissection) and media is changed at 24 and 96 hours (if a 7 day assay is required). Calvaria are maintained in humidified air (5% Co2), at 37° C. Following the period of incubation, the calvaria are then removed and fixed overnight in 10% formalin. The calvaria are then decalcified in 14% EDTA overnight and are then embedded in paraffin wax. Sections are then cut, using a standard microtome, along the midline suture to reveal the coronal suture and the region posterior to this suture. Four micrometer sections were taken initially and at two sequential […] depths. Sections are placed on coated glass slides (Superfrost plus, Fisher Scientific, Pittsburgh, Pa.) and stained with hematoxylin and eosin. The total and new bone area (expressed as mm^2), suture thickness (mm), and number of cells lining the bone surface are determined in the section posterior to the […] suture. Histomorphometric analysis is performed using the Osteomeasure System (Osteometrics INC, Atlanta, Ga.).

[4] = test system: calvaria (skull bones) from 4 day old pups; experiment: Calvarial Assay to Measure Inhibition of Bone Resorption (45Ca release); type: cell-based, CD-1 mice
Method: In order to label cells of newborn mice in utero, pregnant CD-1 female mice (at timed day 15) were injected with ^45Ca (25 uCi/mouse). […] The bones were incubated at 37° C. in a 5% CO2 humidified incubator for a period of 24 hours following which they were transferred to wells containing 1 ml media with factors added (IL-1, PTH and or compounds.) The treated bones were incubated under the above conditions for a further 72 hours. […] The results were expressed as % ^45Ca release and can be further reported as T/C ratios. For some factors and compounds, modification of this procedure can be used. As most of the osteoclasts are formed in the calvaria following the preincubation period, the factors that affect osteoclast formation may have a greater effect during the preincubation period. Thus, for a number of the compounds, they were included in the preincubation media.

BMP-2 promoter = experiment: BMP2 Promoter assay (2T3-BMP2-Luciferase cells, luciferase); type: cell-based, murine

MMP9 protein expression (fold of untreated) [2]: 1.65
Molecule: IL1B: IL-1b stimulus (Calbiochem)
RANK-L Expression (fold increase) (RANK-L [1]): 3.3 ± 0 fold increase

Molecule: CC(C)Oc1ccc2c(=O)c(-c3ccccc3)coc2c1 [I, 7-isopropoxy isoflavone]
Fold Change in Gene Expression (BMP-2): No effect
BMP-2 Protein Expression (BMP-2 protein; 1 μg/ml): 2.4 FOLD
BMP-2 Protein Expression (BMP-2 protein; 10 μg/ml): 1.8 FOLD
BMP-2 Protein Expression (BMP-2 protein; 100 μg/ml): 1.8 FOLD
RANK-L inhibition (%) (RANK-L [3]; 10 μg/ml, listed as Ipriflavone (Ostivone)): 0 ± 4.3% and 2.8 ± 3.9% and 0 ± 2.5%
% Change in Production/Release Levels (compared to untreated control) (RANK-L [3]; tested at 1 μg/ml): No effect
Calvarial Assay Results- Bone formation (Neonatal murine calvaria; 1 μg/ml): 2.44 ± 0.66 mm^2 × 10^−3
Calvarial Assay Results- Bone formation (Neonatal murine calvaria; 10 μg/ml): 6.05 ± 1.12 mm^2 × 10^−3
Calvarial Assay Results- Bone formation (Neonatal murine calvaria; 100 μg/ml): 7.04 ± 0.69^a mm^2 × 10^−3
Inhibition of Bone Resorption/Release of Ca^2+, % Release ([4]; IL-1 + 1 μg/ml): 38.00 ± 1.41 % Release
Inhibition of Bone Resorption/Release of Calcium By Combinations of Extracts, % Release ([4]; IL-1 + 1 μg/ml): 29.75 ± 4.54 % Release
Inhibition of Bone Resorption/Release of Ca^2+, % Release ([4]; IL-1 + 10 μg/ml): 32.50 ± 3.30 % Release
Inhibition of Bone Resorption/Release of Calcium By Combinations of Extracts, % Release ([4]; IL-1 + 10 μg/ml): 30.25 ± 4.03 % Release
Inhibition of Bone Resorption/Release of Ca^2+, % Release ([4]; IL-1 + 100 μ/ml): 19.25 ± 1.03^a % Release
Inhibition of Bone Resorption/Release of Calcium By Combinations of Extracts, % Release ([4]; IL-1 ± 100 μg/ml): 17.50 ± 1.66^a % Release
BMP2 Promoter assay (ratio to control) (BMP-2 promoter; 0.05 μg/ml): 1.00 FOLD
BMP2 Promoter assay (ratio to control) (BMP-2 promoter; 0.1 μg/ml): 0.90 FOLD
BMP2 Promoter assay (ratio to control) (BMP-2 promoter; 0.2 μg/ml): 1.00 FOLD
BMP2 Promoter assay (ratio to control) (BMP-2 promoter; 0.4 μg/ml): 0.90 FOLD
BMP2 Promoter assay (ratio to control) (BMP-2 promoter; 0.8 μg/ml): 1.20 FOLD
BMP2 Promoter assay (ratio to control) (BMP-2 promoter; 1.6 μg/ml): 1.50 FOLD
BMP2 Promoter assay (ratio to control) (BMP-2 promoter; 3.2 μg/ml): 2.10 FOLD
BMP2 Promoter assay (ratio to control) (BMP-2 promoter; 6.3 μg/ml): 2.90 FOLD
BMP2 Promoter assay (ratio to control) (BMP-2 promoter; 12.5 μg/ml): 3.60 FOLD
BMP2 Promoter assay (ratio to control) (BMP-2 promoter; 25 μg/ml): 3.90 FOLD
BMP2 Promoter assay (ratio to control) (BMP-2 promoter; 50 μg/ml): 4.40 FOLD
BMP2 Promoter assay (ratio to control) (BMP-2 promoter; 100 μg/ml): 4.50 FOLD
